Measured values published in paper PMC6767256, “Leishmania mexicana Trypanothione Reductase Inhibitors: Computational and Biological Studies” (Molecules, 2019).
Read-outs that look alike come from different tables or passages of the source.

Columns and labels:
recombinant LmTR (rLmTR) = test: Inhibition of rLmTR activity (NADPH oxidation at 340 nm); type: biochemical, Leishmania mexicana; details: 10% DMSO
Protocol: (§1) The enzymatic activity of rLmTR was assayed spectrophotometrically as previously described. The reaction mixture contained 40 mM Hepes, pH 7.5, 1 mM EDTA, 150 µM NADPH, and 30 ng rLmTR. The reaction was initiated by adding the substrate (T[S]2) at 400 µM and was allowed to proceed for 1 min. NADPH oxidation was followed at 340 nm, monitored every 20 s, in a Synergy™ H1 microplate reader (Biotek Instruments, Inc. Winooski, VT, USA). The decrease in the absorbance at 340 nm was used to determine the moles of substrate consumed. One unit of enzyme activity is defined as the amount of enzyme required to convert 1 μmol of NADPH to NADP per minute at 25 °C [42].
(§2) Compounds ZINC04684558, ZINC09642432, ZINC12151998, ZINC14970552, and ZINC11841871 with affinity to the LmTR catalytic site with docking scores of at most −5.29 kcal/mol were selected to evaluate their in vitro inhibition of rLmTR activity. […] The assay was carried out following the conditions previously described to determine the rLmTR activity. The percentage of inhibition was obtained using the following equation:(1) % Inhibition=[…] where A0 is the enzyme activity without inhibitor and A1 is the enzyme activity in the presence of inhibitor.

[1] = Macrophage cytotoxicity assay (resazurin); details: mouse
Protocol: The cytotoxicity of the five selected compounds was tested using murine macrophage cell line J774.2 (ATCC ®TIB-67). […] For this, macrophages were seeded (5 × 10^4 cells/well) in 96-well flat-bottomed microplates and allowed to adhere for 24 h at 37 °C in 5% CO2. […] Thereafter, 20 µL of a 2.5 mM resazurin solution was added to each well, and the plates were incubated for another 4 h. The fluorescence emission was measured as described above. The half-maximal cytotoxicity concentration (CC50) was determined by Probit analysis.

[2] = system: L. mexicana promastigotes strain MNYC/BZ/62/M379; test: Activity against L. mexicana promastigotes (resazurin method); details: for SI (selectivity index): SI = CC50/IC50 (J774.2 / L. mexicana promastigotes)
Protocol: After incubation for 48 h at 26 °C, 20 µL of 2.5 mM resazurin solution was added to each well and incubated for 4 h. […] All assays were carried out in triplicate. The half-maximal inhibitory concentration (IC50) was determined by Probit analysis.

[3] = Solubility in the enzyme assay (observation); type: physicochemical; details: prevented testing at higher concentration in the rLmTR assay
Protocol: as §2

rLmTR = test: Kinetic characterization of rLmTR with substrate T[S]2; type: biochemical, Leishmania mexicana; details: T[S]2 as substrate, 150 µM NADPH
Protocol: as §1
The kinetic data were analyzed by linear regression fit to Michaelis–Menten kinetics and linearized by the double reciprocal transformation of Lineweaver and Burk.

[4] = Leishmania mexicana, 48 h, read-out: IC50 (leishmanicidal activity), L. mexicana promastigotes, 48 h at 26 °C

SMILES | % Inhibition of rLmTR activity (recombinant LmTR (rLmTR); compound at 300 µM) | CC50 at 24 h ([1]; J774.2 macrophage cell line) | IC50 [2, 4] | SI (selectivity index) [2] | CC50 at 24 h [1] | Solubility [3] | % Inhibition of rLmTR activity (recombinant LmTR (rLmTR); compound at 150 µM) | % Inhibition of rLmTR activity (recombinant LmTR (rLmTR); compound at 100 µM) | Km (rLmTR) | IC50 ([2]; read-out: IC50 (leishmanicidal activity), L. mexicana promastigotes, 48 h at 26 °C)
CC1(C)C[C@H](NC(=O)c2cnn(-c3ncc4c(n3)-c3ccccc3CC4)c2C2CC2)CCO1 [ZINC14970552] | 35.7% | 219 µM | 147 µM | 1.4 | – | – | – | – | – | –
C[C@@H]1[C@H](O)[C@@H](C)/C=C/C=C/C=C/C=C/C=C/C=C/C=C/[C@H](O[C@@H]2O[C@H](C)[C@@H](O)[C@H](N)[C@@H]2O)C[C@@H]2O[C@](O)(C[C@@H](O)C[C@@H](O)[C@H](O)CC[C@@H](O)C[C@@H](O)CC(=O)O[C@H]1C)C[C@H](O)[C@H]2C(=O)O [Amphotericin B, reference compound] | – | – | 0.11 µM | 67 | 7.4 µM | – | – | – | – | –
CC(=O)N[C@@H]1c2ccccc2C2(CCN(C(=O)c3n[nH]c4ccccc34)CC2)[C@H]1OCc1ccccc1 [ZINC11841871] | – | 103 µM | 159 µM | 0.6 | – | poor solubility | 39.5% | – | – | –
O=C(NCc1ccc2ncccc2c1)c1cnn(-c2ncc3c(n2)-c2ccccc2CCC3)c1C1CC1 [ZINC12151998] | – | 53 µM | 58 µM | 0.9 | – | poor solubility | – | 32.9% | – | –
N[C@@H](CCC(=O)N[C@H]1CSSC[C@H](NC(=O)CC[C@H](N)C(=O)O)C(=O)NCC(=O)NCCCNCCCCNC(=O)CNC1=O)C(=O)O [T[S]2, trypanothione disulfide] | – | – | – | – | – | – | – | – | 173 µM | –
CCCCCCCCCCCCCCCCOP(=O)([O-])OCC[N+](C)(C)C [Miltefosine, reference compound] | – | – | 2.98 µM | 47 | 141 µM | – | – | – | – | –
Cc1nnc(N2CCN(C(=O)Nc3ccc(F)cc3F)CC2)c2nn(-c3ccccc3)c(C)c12 [ZINC09642432] | 40.1% | 335 µM | > 200 µM | 1.5 | – | – | – | – | – | 222 µM
